Test results taken from patent publication US8153589B2, “JNK3 as a target for the treatment of angiogenesis-related diseases” (The University of North Carolina at Chapel Hill, priority 2009, dated 2012).

Test system: MKP7
Experiment: Biotin switch assay, MKP7 nitrosylation in BAECs transfected with Flag-MKP7
Assay type: cell-based
Conditions: 50 ng/ml SDF-1alpha for 5 minutes
Method: Experiments were performed following the methods previously described by Dr. Stamler's laboratory (39). Cell lysates containing Flag or Myc-tagged MKP7 protein were treated with the indicated concentrations of GSNO followed by the addition of 2 volumes of HEN buffer and freshly prepared S-methyl methanethiosulfonate (10% v/v in N,N-dimethylformamide) and SDS (25% v/v) to final concentrations of 0.1 and 2.5%, respectively. Following frequent vortexing at 50° C. for 1 hour, proteins were precipitated with 3 volumes of acetone at −20° C. for 30 min. The proteins were recovered by centrifugation at 5,000×g for 5 min, followed by gentle rinsing of the pellet with 3×1 ml acetone. The pellets were then resuspended in 240 μl of HEN buffer containing 1% SDS. The resuspended protein was precipitated, rinsed and resuspended once more. For labeling, the blocked samples were mixed with 0.1 volume of biotin-HPDP (2.5 mg/ml in Me2SO) and 0.1 volume of HEN (control) or freshly prepared sodium Ascorbic acid in HEN buffer. […] The eluted mixture was then analyzed by SDS-PAGE, followed by immunoblotting with anti-Flag-HRP (1:5000) or antibodies.
As a first step, we investigated whether SDF-1α treatment of BAECs would result in S-nitrosylation of MKP7. […] Next we used JNK3 phosphorylation as a readout for determining whether or not SDF-1α activation of JNK3 could be inhibited by MKP7. […]

**Q.** Which “MKP7 nitrosylation in BAECs” value does the source give for SDF-1α here?
**A.** increased
